Assay results from the supplement of paper PMC10307832.

Key:
Assay in all cases: relative viability (nuclei count vs DMSO), 5 days (fraction); higher = more cells survive
[1] = compound: Cn1nnc2c(C(N)=O)ncn2c1=O [Temozolomide] + C[C@]1(O)C[C@@H](c2nc(-c3ccc4ccc(-c5ccccc5)nc4c3)c3c(N)nccn32)C1 [Linsitinib] (partner 1 µM)
In short: (§1)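 Dosing by pin tool came one day after lung cancer cell lines were seeded in 1536-well plates, using either one drug or a fixed anchor-drug dose plus five library-drug doses (not always all listed) in √10 steps. After 5 days, nuclei were counted on 4× images. Relative viability is treated-well nuclei count divided by vehicle-well nuclei count, and values are medians of duplicate plates.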

[2] = compound: Cn1nnc2c(C(N)=O)ncn2c1=O [Temozolomide] + CC(C)C[C@H](NC(=O)[C@H](Cc1ccccc1)NC(=O)c1cnccn1)B(O)O [Bortezomib] (partner 0.002 µM)
In short: as §1

AZD5582 + Tozasertib = compound: C[C@@H](C(=O)N[C@@H](C1CCCCC1)C(=O)N2CCC[C@H]2C(=O)N[C@@H]3[C@@H](CC4=CC=CC=C34)OCC#CC#CCO[C@@H]5CC6=CC=CC=C6[C@@H]5NC(=O)[C@@H]7CCCN7C(=O)[C@H](C8CCCCC8)NC(=O)[C@H](C)NC)NC [AZD5582] + Cc1cc(Nc2cc(N3CCN(C)CC3)nc(Sc3ccc(NC(=O)C4CC4)cc3)n2)n[nH]1 [Tozasertib] (partner 0.1 µM)
In short: as §1

Temozolomide + Foretinib = compound: Cn1nnc2c(C(N)=O)ncn2c1=O [Temozolomide] + COc1cc2c(Oc3ccc(NC(=O)C4(C(=O)Nc5ccc(F)cc5)CC4)cc3F)ccnc2cc1OCCCN1CCOCC1 [Foretinib] (partner 0.25 µM)
In short: as §1

Cell Line | relative viability ([1]; first compound 0.2 µM) | relative viability ([1]; first compound 0.6325 µM) | relative viability ([1]; first compound 2 µM) | relative viability ([1]; first compound 6.325 µM) | relative viability ([1]; first compound 20 µM) | relative viability ([2]; first compound 0.2 µM) | relative viability ([2]; first compound 0.6325 µM) | relative viability ([2]; first compound 2 µM) | relative viability ([2]; first compound 6.325 µM) | relative viability ([2]; first compound 20 µM) | relative viability (AZD5582 + Tozasertib; first compound 0.001581 µM) | relative viability (AZD5582 + Tozasertib; first compound 0.005 µM) | relative viability (AZD5582 + Tozasertib; first compound 0.05 µM) | relative viability (Temozolomide + Foretinib; first compound 0.2 µM) | relative viability (Temozolomide + Foretinib; first compound 0.6325 µM) | relative viability (Temozolomide + Foretinib; first compound 2 µM) | relative viability (Temozolomide + Foretinib; first compound 6.325 µM) | relative viability (Temozolomide + Foretinib; first compound 20 µM) | relative viability (AZD5582 + Tozasertib; first compound 0.01581 µM)
NCI-H1651 | 0.998 | 0.99 | 1.14 | 1.04 | 0.969 | 1.01 | 0.975 | 0.989 | 0.915 | 0.898 | 0.727 | 0.845 | 0.918 | 0.914 | 0.725 | 0.782 | 0.759 | 0.839 | 
EPLC-272H | 1.13 | 1.13 | 1.38 | 1.11 | 0.812 | 1.02 | 1.05 | 0.91 | 0.832 | 0.805 | 0.15 |  | 0.076 | 0.537 | 0.697 | 0.628 | 0.712 | 0.497 | 0.292
NCI-H2009 | 1.2 | 1.22 | 1.3 | 1.2 | 1.22 | 1.19 | 1 | 1.19 | 0.961 | 1.04 | 0.715 | 0.774 | 0.788 | 1.23 | 1.21 | 1.24 | 1.2 | 1.3 | 0.761
NCI-H1563 | 1.14 | 1.26 | 1.39 | 1.23 | 1.22 | 0.91 | 0.862 | 0.911 | 0.878 | 0.833 |  |  |  | 0.762 | 0.967 | 0.886 | 0.915 | 0.927 | 
NCI-H522 |  |  |  |  |  |  |  |  |  |  | 0.592 | 0.491 | 0.524 |  |  |  |  |  | 0.594
SK-MES-1 | 1.14 | 1.09 | 1.07 | 1.13 | 1.05 |  |  |  |  |  | 0.771 | 0.785 | 0.805 | 0.972 | 1.05 | 1.09 | 0.892 | 0.521 | 0.888
LK-2 | 0.359 | 0.543 | 0.418 | 0.382 | 0.253 |  |  |  |  |  | 0.161 | 0.174 | 0.182 | 1.25 | 1.44 | 1.19 | 0.742 | 0.519 | 0.149
EBC-1 | 1.03 | 0.885 | 1.13 | 0.912 | 0.947 | 0.601 | 0.577 | 0.549 | 0.544 | 0.575 |  |  |  | 0.11 | 0.1 | 0.0982 | 0.111 | 0.117 | 
ChaGo-K-1 |  |  |  |  |  | 1.17 | 0.955 | 1.21 | 0.967 | 0.985 | 0.242 | 0.231 | 0.215 | 0.993 | 0.886 | 0.992 | 0.98 | 0.975 | 0.208
NCI-H1648 |  |  |  |  |  |  |  |  |  |  |  | 0.549 | 0.615 |  |  |  |  |  | 0.37
NCI-H1299 | 0.994 | 0.961 | 1.16 | 1 | 1.02 | 1.07 | 1.06 | 1.04 | 1.02 | 1.02 |  |  |  | 1.15 | 1.12 | 1.09 | 1.1 | 1.12 | 
NCI-H1792 | 0.363 | 0.586 | 0.498 | 0.475 | 0.481 | 0.969 | 0.988 | 1.01 | 0.641 | 0.953 |  |  |  |  |  |  |  |  | 
NCI-H1623 |  |  |  |  |  |  |  |  |  |  | 0.441 | 0.455 | 0.432 |  | 0.854 | 0.827 | 0.822 | 0.519 | 0.444
SW 900 |  |  |  |  |  |  |  |  |  |  | 0.481 | 0.365 | 0.468 | 0.924 | 1.2 | 0.955 | 0.732 | 1.25 | 0.722
A549 | 0.348 | 0.684 | 0.759 | 0.517 | 0.467 |  |  |  |  |  |  |  |  | 1.02 | 0.996 | 0.998 | 1.01 | 0.769 | 
NCI-H2342 |  |  |  |  |  |  |  |  |  |  | 0.493 | 0.585 | 0.542 | 0.793 | 1 | 1.04 | 1.02 | 0.886 | 0.43
NCI-H1944 | 0.662 | 1.17 | 1.26 | 1.11 | 0.992 |  |  |  |  |  | 0.226 | 0.25 | 0.297 | 0.756 | 0.922 | 0.847 | 0.875 | 0.795 | 0.266
Calu-6 | 0.929 | 0.941 | 1.17 | 0.971 | 1.02 | 1.11 | 0.866 | 1.25 | 0.955 | 1.02 |  |  |  | 0.886 | 0.843 | 0.941 | 0.811 | 0.904 | 
IA-LM | 0.941 | 0.518 | 0.664 | 0.548 | 0.909 | 0.794 | 0.988 | 1.04 | 0.742 | 0.945 |  |  |  | 1.35 | 1.23 | 1.19 | 1.03 | 1.34 | 
NCI-H1395 | 0.821 | 1.05 | 1.31 | 0.978 | 1.04 |  |  |  |  |  | 0.703 | 0.714 | 0.797 | 0.865 | 0.92 | 1.03 | 0.94 | 0.911 | 0.81
NCI-H2170 |  |  |  |  |  |  |  |  |  |  | 0.647 | 0.716 | 0.829 |  | 1.01 | 1.05 | 0.993 | 0.526 | 0.746
